Experimental data as given in US20110038885A1, “CHEMOKINE ANALOGS” (priority 2007, published 2011).
Numbered stars: 1 amine (or outer) side, 2 acyl side, 3 side chain; on linkers, the order of the positions; unused ones are H or OH. Bridge positions count the residues as written; N and C are the ends. Square brackets hold non-standard residues; d marks the D form. Peptide text beside a SMILES is read from it. * marks the point of attachment. NH(CH2)8CO = O=C(CCCCCCCCN[*:1])[*:2]; Diglycolyl = O=C(COCC(=O)[*:2])[*:1]; Suc = O=C(CCC(=O)[*:2])[*:1]; X3 = O=C(/C=C/c1ccc(Cl)cc1)*; Lauroyl = CCCCCCCCCCCC(=O)*; Decanoyl = CCCCCCCCCC(=O)*; Isobutyryl = CC(C)C(=O)*; Orn = NCCC[C@H](N)C(=O)O; Dab = NCC[C@H](N)C(=O)O; Dap = NC[C@H](N)C(=O)O; Bz = O=C(c1ccccc1)*; Ava = NCCCCC(=O)O; GABA = NCCCC(=O)O; βAla = NCCC(=O)O

System: MCP-1
Assay: In vitro chemotaxis (trans-well migration) v MCP-1
Type: cell-based, human
Protocol: To determine whether an agent inhibits a chemokine-induced activity, such as macrophage recruitment, varying amounts of the agent are mixed with cells in the presence of a known chemoattractant. For example, a range of known concentrations of an agent, e.g., a chemokine peptide, is incubated with a defined number (e.g., 10^4-10^6) of human THP-1 monocyte cells in individual wells of the top compartment of a trans-well plate. Chemokine, at a concentration known to cause significant migration of THP-1 cells in the trans-well migration assay, is placed in the lower compartment of a trans-well plate. Cells are then incubated at 37° C. for a period sufficient to allow migration, e.g., 4 hours. After incubation, the cells are gently removed from the top of the filter with a pipette, 20 μl of 20 mM EDTA in simple PBS is added into each top well, and incubated for 20 minutes at 4° C. The filter is carefully flushed with media using a gentle flow, and removed. A standard curve consisting of a two-fold dilution series of THP-1 cells (in 29 μl) is placed to accurately quantify the number of cells that have migrated. Migrated cells are stained with 3 μl of MTT stock dye solution which is added directly into each well (5 mg/ml in RPMI-1640 without phenol red) (Sigma Chemical Co., St. Louis, Mo., USA) and incubated at 37° C. for 4 hours. The media is carefully aspirated from each well, and the converted dye is solubilized by 20 μl of DMSO. Absorbance of converted dye is measured at a wavelength of 595 nm using an ELISA plate reader. The number of migrated cells in each well is then determined by interpolation of the standard curve (see also Imai et al., J. Biol. Chem., 272:15036, 1997). Any method suitable for counting cells can be used, for example, counting with a hemocytometer, incubation of the cells with MTT (see above), or FACS analysis. A negative control assay is also performed, using TGFβ or another non-chemokine chemoattractant (e.g., IL1β or TNFα). To assess whether the agent is cytotoxic, the same concentrations of agent are incubated with THP-1 cells. Agents which 1) are not cytotoxic at levels which inhibit migration, 2) are ineffective at inhibiting the negative control-induced migration, and 3) reduce or inhibit chemokine-induced THP-1 migration, are agents which fall within the scope of the invention.

Question: `CC[C@H](C)[C@@H]1NC(=O)[C@H](Cc2c[nH]c3ccccc23)NC(=O)[C@H](CCCCN)NC(=O)[C@@H](NC(=O)[C@@H](CCC(N)=O)NC(C)=O)CSSC[C@@H](C(N)=O)NC(=O)[C@H](CCC(N)=O)NC1=O` [Example 3, Ac-DGln-c(Cys-Lys-Trp-Ile-Gln-Cys)-NH2] (Ac-[dQ]CKWIQC-NH2; disulfide 2-7) was tested. Which EC50 did it give?
Answer: 6 nM

Question: `CC[C@H](C)[C@@H]1NC(=O)[C@@H](NC(=O)[C@@H](N)Cc2c[nH]c3ccccc23)CSSC[C@@H](C(N)=O)NC(=O)[C@H](CCC(N)=O)NC1=O` [Example 85, Trp-c(Cys-Ile-Gln-Cys)-NH2] (H-WCIQC-NH2; disulfide 2-5) was tested. Which EC50 did it give?
Answer: 50 nM

Question: With `CC[C@H](C)[C@@H]1NC(=O)[C@H](Cc2c[nH]c3ccccc23)NC(=O)[C@H](CCCCN)NC(=O)CCCCNC(=O)CC[C@@H](C(N)=O)NC(=O)[C@H](CCC(N)=O)NC1=O` [Example 91, c(Apn-Lys-Trp-Ile-Gln-Glu)-NH2] ([Ava]KWIQE-NH2; lactam N-6) as the compound, how does the EC50 read?
Answer: 9 nM

Question: `CC[C@@H](C)[C@H]1NC(=O)[C@@H](CCC(N)=O)NC(=O)CCCNC(=O)C[C@H](C(N)=O)NC(=O)[C@@H](CCCCN)NC(=O)[C@@H](Cc2c[nH]c3ccccc23)NC1=O` [Example 196, c(Gaba-D-Gln-D-Ile-D-Trp-D-Lys-D-Asp)-NH2] ([GABA][dQ][dI][dW][dK][dD]-NH2; lactam N-6) was tested. Which EC50 did it give?
Answer: 50 nM

Question: With `CC[C@@H](C)[C@H]1NC(=O)[C@H](Cc2c[nH]c3ccccc23)NC(=O)[C@H](CCCCN)NC(=O)[C@@H](NC(C)=O)CSSC[C@@H](C(N)=O)NC(=O)[C@H](CCC(N)=O)NC1=O` [Example 76, Ac-c(Cys-Lys-Trp-D-Ile-Gln-Cys)-NH2] (Ac-CKW[dI]QC-NH2; disulfide 1-6) as the compound, how does the EC50 read?
Answer: 20 nM

Question: Which EC50 does the source give for `CC[C@H](C)[C@@H]1NC(=O)[C@H](Cc2c[nH]c3ccccc23)NC(=O)[C@H](CCCCN)NC(=O)[C@@H](NC(=O)C(C)C)CCC(=O)NC[C@@H](C(N)=O)NC(=O)[C@H](CCC(N)=O)NC1=O` [Example 100, Isobutyryl-c(Glu-Lys-Trp-Ile-Gln-Dap)-NH2] (Isobutyryl-EKWIQ[Dap]-NH2; lactam 1-6) here?
Answer: 10 nM

Question: For `CC[C@H](C)[C@@H]1NC(=O)[C@H](Cc2c[nH]c3ccccc23)NC(=O)[C@H](CCCCN)NC(=O)CCC(=O)NCCC[C@@H](C(N)=O)NC(=O)[C@H](CCC(N)=O)NC1=O` [Example 62, c(Succinyl-Lys-Trp-Ile-Gln-Orn)-NH2] (KWIQ[Orn]-NH2; linker N-5 via Suc), which EC50 is on record?
Answer: 66 nM

Question: For `CC[C@H](C)[C@@H]1NC(=O)[C@H](Cc2c[nH]c3ccccc23)NC(=O)[C@H](CCCCN)NC(=O)CCNC(=O)CC[C@@H](C(N)=O)NC(=O)[C@H](CCC(N)=O)NC1=O` [Example 89, c((βAla-Lys-Trp-Ile-Gln-Glu)-NH2] ([βAla]KWIQE-NH2; lactam N-6), which EC50 is on record?
Answer: 20 nM

Question: With `CC[C@H](C)[C@@H]1NC(=O)[C@H](Cc2c[nH]c3ccccc23)NC(=O)[C@H](CCCCN)NC(=O)CNC(=O)C[C@@H](C(N)=O)NC(=O)[C@H](CCC(N)=O)NC1=O` [Example 87, c(Gly-Lys-Trp-Ile-Gln-Asp)-NH2] (GKWIQD-NH2; lactam N-6) as the compound, how does the EC50 read?
Answer: 15 nM

Question: Which EC50 does the source give for `CC[C@H](C)[C@@H]1NC(=O)[C@H](Cc2c[nH]c3ccccc23)NC(=O)[C@H](CCCCN)NC(=O)[C@@H](NC(=O)C(C)C)CSSC[C@@H](C(N)=O)NC(=O)[C@H](CCC(N)=O)NC1=O` [Example 58, Isobutyryl-c(Cys-Lys-Trp-Ile-Gln-Cys)-NH2] (Isobutyryl-CKWIQC-NH2; disulfide 1-6) here?
Answer: 8 nM

Question: Which EC50 does the source give for `CC[C@H](C)[C@@H]1NC(=O)[C@H](Cc2c[nH]c3ccccc23)NC(=O)[C@H](CCCCN)NC(=O)[C@@H](NC(=O)C(C)C)CNC(=O)CC[C@@H](C(N)=O)NC(=O)[C@H](CCC(N)=O)NC1=O` [Example 7, Isobutyryl-c(Dap-Lys-Trp-Ile-Gln-Glu)-NH2] (Isobutyryl-[Dap]KWIQE-NH2; lactam 1-6) here?
Answer: 5 nM

Question: For “[aminoPeg10-oxaglutaryl]2-c(D-Cys-D-Gln-D-Ile-D-Trp-D-Lys-D-Gln-D-Lys-D-Pro-D-Asp-D-Leu-D-Cys)-NH2 [Example 186]”, which EC50 is on record?
Answer: 20 nM

Question: `CC[C@H](C)[C@@H]1NC(=O)[C@H](Cc2c[nH]c3ccccc23)NC(=O)[C@H](CCCCN)NC(=O)[C@@H](NC(C)=O)CC(=O)NCCC[C@@H](C(N)=O)NC(=O)[C@H](CCC(N)=O)NC1=O` [Example 112, Ac-c(Asp-Lys-Trp-Ile-Gln-Orn)-NH2] (Ac-DKWIQ[Orn]-NH2; lactam 1-6) was tested. Which EC50 did it give?
Answer: 6 nM

Question: `CC[C@@H](C)[C@H]1NC(=O)[C@@H](CCC(N)=O)NC(=O)CCNC(=O)C[C@H](C(N)=O)NC(=O)[C@@H](CCCCN)NC(=O)[C@@H](Cc2c[nH]c3ccccc23)NC1=O` [Example 195, c((βAla-D-Gln-D-Ile-D-Trp-D-Lys-D-Asp)-NH2] ([βAla][dQ][dI][dW][dK][dD]-NH2; lactam N-6) was tested. Which EC50 did it give?
Answer: 45 nM

Question: `CC[C@H](C)[C@@H]1NC(=O)[C@H](Cc2c[nH]c3ccccc23)NC(=O)[C@H](CCCCN)NC(=O)[C@@H](NC(=O)C(C)C)CC(=O)NCCC[C@@H](C(N)=O)NC(=O)[C@H](CCC(N)=O)NC1=O` [Example 99, Isobutyryl-c(Asp-Lys-Trp-Ile-Gln-Orn)-NH2] (Isobutyryl-DKWIQ[Orn]-NH2; lactam 1-6) was tested. Which EC50 did it give?
Answer: 50 nM

Question: How did the EC50 turn out when `CCCCCCCCCCCC(=O)N[C@H]1CSSC[C@@H](C(N)=O)NC(=O)[C@H](CCC(N)=O)NC(=O)[C@H]([C@@H](C)CC)NC(=O)[C@H](Cc2c[nH]c3ccccc23)NC(=O)[C@H](CCCCN)NC1=O` [Example 84, Dodecanoyl-c(Cys-Lys-Trp-Ile-Gln-Cys)-NH2] (Lauroyl-CKWIQC-NH2; disulfide 1-6) was run?
Answer: 15 nM

Question: For `CC[C@H](C)[C@@H]1NC(=O)[C@H](Cc2c[nH]c3ccccc23)NC(=O)[C@H](CCCCN)NC(=O)[C@@H](NC(=O)C(C)C)CNC(=O)C[C@@H](C(N)=O)NC(=O)[C@H](CCC(N)=O)NC1=O` [Example 104, Isobutyryl-c(Dap-Lys-Trp-Ile-Gln-Asp)-NH2] (Isobutyryl-[Dap]KWIQD-NH2; lactam 1-6), which EC50 is on record?
Answer: 50 nM

Question: Which EC50 does the source give for `CC[C@H](C)[C@@H]1NC(=O)[C@H](Cc2c[nH]c3ccccc23)NC(=O)[C@@H](CCCCN)NC(=O)[C@@H](NC(C)=O)CSSC[C@@H](C(N)=O)NC(=O)[C@H](CCC(N)=O)NC1=O` [Example 78, Ac-c(Cys-D-Lys-Trp-Ile-Gln-Cys)-NH2] (Ac-C[dK]WIQC-NH2; disulfide 1-6) here?
Answer: 30 nM

Question: Which EC50 does the source give for `CC[C@H](C)[C@@H]1NC(=O)[C@H](Cc2c[nH]c3ccccc23)NC(=O)[C@H](CCCCN)NC(=O)COCC(=O)NCC[C@@H](C(N)=O)NC(=O)[C@H](CCC(N)=O)NC1=O` [Example 131, c(Diglycolyl-Lys-Trp-Ile-Gln-Dab)-NH2] (KWIQ[Dab]-NH2; linker N-5 via Diglycolyl) here?
Answer: 30 nM

Question: How did the EC50 turn out when `CC[C@H](C)[C@@H]1NC(=O)[C@H](Cc2c[nH]c3ccccc23)NC(=O)[C@H](CCCCN)NC(=O)[C@@H](NC(C)=O)CSSC[C@H](C(N)=O)NC(=O)[C@H](CCC(N)=O)NC1=O` [Example 74, Ac-c(Cys-Lys-Trp-Ile-Gln-D-Cys)-NH2] (Ac-CKWIQ[dC]-NH2; disulfide 1-6) was run?
Answer: 7 nM

Question: With `CC[C@H](C)[C@@H]1NC(=O)[C@H](Cc2c[nH]c3ccccc23)NC(=O)[C@H](CCCCN)NC(=O)CCCCCCCCNC(=O)CC[C@@H](C(N)=O)NC(=O)[C@H](CCC(N)=O)NC1=O` [Example 98, c(Anc-Lys-Trp-Ile-Gln-Glu)-NH2] ([NH(CH2)8CO]KWIQE-NH2; lactam N-6) as the compound, how does the EC50 read?
Answer: 15 nM

Question: With `CCCCCCCCCC(=O)N[C@H]1CSSC[C@@H](C(N)=O)NC(=O)[C@H](CCC(N)=O)NC(=O)[C@H]([C@@H](C)CC)NC(=O)[C@H](Cc2c[nH]c3ccccc23)NC(=O)[C@H](CCCCN)NC1=O` [Example 83, Decanoyl-c(Cys-Lys-Trp-Ile-Gln-Cys)-NH2] (Decanoyl-CKWIQC-NH2; disulfide 1-6) as the compound, how does the EC50 read?
Answer: 20 nM

Question: How did the EC50 turn out when `CC[C@H](C)[C@@H]1NC(=O)[C@H](Cc2c[nH]c3ccccc23)NC(=O)[C@H](CCCCN)NC(=O)[C@@H](NC(=O)c2ccccc2)CSSC[C@@H](C(N)=O)NC(=O)[C@H](CCC(N)=O)NC1=O` [Example 57, Benzoyl-c(Cys-Lys-Trp-Ile-Gln-Cys)-NH2] (Bz-CKWIQC-NH2; disulfide 1-6) was run?
Answer: 15 nM

Question: How did the EC50 turn out when `CC[C@H](C)[C@@H]1NC(=O)[C@H](Cc2c[nH]c3ccccc23)NC(=O)[C@H](CCCCN)NC(=O)COCC(=O)NCCC[C@@H](C(N)=O)NC(=O)[C@H](CCC(N)=O)NC1=O` [Example 132, c(Diglycolyl-Lys-Trp-Ile-Gln-Orn)-NH2] (KWIQ[Orn]-NH2; linker N-5 via Diglycolyl) was run?
Answer: 200 nM

Question: Which EC50 does the source give for `CC[C@H](C)[C@@H]1NC(=O)[C@H](Cc2c[nH]c3ccccc23)NC(=O)[C@H](CCCCN)NC(=O)[C@@H](NC(=O)/C=C/c2ccc(Cl)cc2)CSSC[C@@H](C(N)=O)NC(=O)[C@H](CCC(N)=O)NC1=O` [Example 73, 4-Chlorocinnamoyl-c(Cys-Lys-Trp-Ile-Gln-Cys)-NH2] (X3-CKWIQC-NH2; disulfide 1-6) here?
Answer: 10 nM
